The target of one data set is T1, human PR (Homo sapiens, UniProt P06401).
T1 construct: expressed in transfected cells; host or cells: CV-1 cells, electroporated with pLEM-hPR-B plasmid
T1 sequence (P06401 1-933): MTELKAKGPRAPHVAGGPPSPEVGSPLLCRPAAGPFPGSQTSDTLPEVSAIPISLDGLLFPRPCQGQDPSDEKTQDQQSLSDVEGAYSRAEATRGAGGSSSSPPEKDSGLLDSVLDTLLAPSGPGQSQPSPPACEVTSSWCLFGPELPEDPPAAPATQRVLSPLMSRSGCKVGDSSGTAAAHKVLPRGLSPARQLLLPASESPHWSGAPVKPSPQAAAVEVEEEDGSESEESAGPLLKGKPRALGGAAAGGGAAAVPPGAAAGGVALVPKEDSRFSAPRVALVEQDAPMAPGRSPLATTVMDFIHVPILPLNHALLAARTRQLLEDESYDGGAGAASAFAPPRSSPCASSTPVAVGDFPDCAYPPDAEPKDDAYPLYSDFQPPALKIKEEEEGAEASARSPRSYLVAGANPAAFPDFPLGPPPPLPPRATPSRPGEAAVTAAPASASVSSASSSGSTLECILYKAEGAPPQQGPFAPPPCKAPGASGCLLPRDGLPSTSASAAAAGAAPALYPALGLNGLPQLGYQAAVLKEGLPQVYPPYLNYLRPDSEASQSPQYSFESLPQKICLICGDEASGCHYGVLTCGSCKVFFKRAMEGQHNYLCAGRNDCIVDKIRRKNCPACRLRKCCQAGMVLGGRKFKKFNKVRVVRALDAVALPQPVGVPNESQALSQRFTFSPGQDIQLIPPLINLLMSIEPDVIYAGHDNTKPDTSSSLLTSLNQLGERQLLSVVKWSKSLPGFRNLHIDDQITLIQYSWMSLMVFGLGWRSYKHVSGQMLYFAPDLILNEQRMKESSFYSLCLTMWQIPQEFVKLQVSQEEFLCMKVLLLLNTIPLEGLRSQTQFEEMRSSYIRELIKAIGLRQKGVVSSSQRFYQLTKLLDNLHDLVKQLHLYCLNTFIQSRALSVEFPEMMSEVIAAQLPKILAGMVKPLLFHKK
Put plainly: PRE-luciferase assay in CV-1 cells. Format: cell-based. The settings on record: PRE-luciferase agonist mode in CV-1 cells. The protocol: 2. PRE-luciferase Assay in CV-1 Cells
The object of this assay is to determine a compound's progestational or antiprogestational potency based on its effect on PRE-luciferase reporter activity in CV-1 cells co-transfected with human PR and PRE-luciferase plasmids. The materials methods used in the assay are as follows.
a. Growth Medium: DMEM (BioWhittaker) containing 10% (v/v) fetal bovine serum (heat inactivated), 0.1 mM MEM non-essential amino acids, 100 U/ml penicillin, […] streptomycin, and 2 mM GlutaMax (GIBCO, BRL). Experimental medium: DMEM (BioWhittaker), phenol red-free, containing 10% (v/v) charcoal-stripped fetal bovine serum (heat-inactivated), 0.1 mM MEM non-essential amino acids, 100 U/ml penicillin, […] streptomycin, and 2 mM GlutaMax (GIBCO, BRL).
b. Cell Culture, Transfection, Treatment, and Luciferase Assay
Stock CV-1 cells are maintained in growth medium. Co-transfection is done using 1.2×10^7 cells, […] pLEM plasmid with hpR-B inserted at Sph1 and BamH1 sites, […] pGL3 plasmid with two PREs upstream of the luciferase sequence, and […] sonicated calf thymus DNA as carrier DNA in […]. Electroporation is carried out at 260 V and […] in a Biorad Gene Pulser II. After electroporation, cells are resuspended in growth medium and plated in 96-well plate at 40,000 cells/well in 200 μl. Following overnight incubation, the medium is changed to experimental medium. Cells are then treated with reference or test compounds in experimental medium. […] Twenty-four hr. after treatment, the medium is discarded, cells are washed three times with D-PBS (GIBCO, BRL). Fifty μl of cell lysis buffer (Promega, Madison, Wis.) is added to each well and the plates are shaken for 15 min in a Titer Plate Shaker (Lab Line Instrument, Inc.). Luciferase activity is measured using luciferase reagents from Promega.
Each treatment consists of at least 4 replicates. Log transformed data are used for analysis of variance and nonlinear dose response curve fitting for both agonist and antagonist modes. Huber weighting is used to downweight the effects of outliers. EC50 or IC50 values are calculated from the retransformed values.

The next data set concerns T47D cells. In words: T47D cell proliferation assay (BrdU incorporation). It counts as cell-based. The settings on record: half-maximal increase in BrdU incorporation in T47D cells; individual studies. The protocol:
3. T47D Cell Proliferation Assay
The objective of this assay is the determination of progestational and antiprogestational potency by using a cell proliferation assay in T47D cells. A compound's effect on DNA synthesis in T47D cells is measured.
DMEM:F12 (1:1) (GIBCO, BRL) supplemented with 10% (v/v) fetal bovine serum (not heat-inactivated), 100 U/ml penicillin, […], and 2 mM GlutaMax (GIBCO, BRL).
Minimum Essential Medium (MEM) (#51200-038GIBCO, BRL) phenol red-free supplemented with 0.5% charcoal stripped fetal bovine serum, 100 U/ml penicillin, 200 mg/ml streptomycin, and 2 mM GlutaMax (GIBCO, BRL).
Stock T47 D cells are maintained in growth medium For BrdU incorporation assay, cells are plated in 96-well plates (Falcon, Becton Dickinson Labware) at 10,000 cells/well in growth medium. […]
At the end of BrdU labeling, the medium is removed and BrdU incorporation is measured using a cell proliferation ELISA kit (#RPN 250, Amersham Life Science) according to manufacturer's instructions. […] Then 25 μl of 1 M sulfuric acid is added to each well to stop color reaction and optical density is read in a plate reader at 450 nm within 5 min.
Square root-transformed data are used for analysis of variance and nonlinear dose response curve fitting for both agonist and antagonist modes. […] EC50 or IC50 values are calculated from the retransformed values. […]
Background: Dividing cells build labelled thymidine or BrdU into new DNA.

The test system of data set [1] is rat uterine decidualization. Put plainly: Rat decidualization assay. Format: in vivo. As to conditions: for EC50: half-maximal increase in decidual response (uterine wet weight), ovariectomized rats, s.c., individual studies. On the procedure:
1. Rat Decidualization Assay:
The animals are treated once daily for seven days.
Uteri are removed and trimmed of fat. Decidualized (D-hom) and control (C-horn) uterine horns are weighed separately.
Body weight: Mean total animal body weight (default-kg)
Decidual response: [(D-C)/C]×100%

Data set [2] concerns the target T2, A-form of the human progesterone receptor (Homo sapiens, UniProt P06401).
T2 sequence (P06401 1-769 isoform P06401-2): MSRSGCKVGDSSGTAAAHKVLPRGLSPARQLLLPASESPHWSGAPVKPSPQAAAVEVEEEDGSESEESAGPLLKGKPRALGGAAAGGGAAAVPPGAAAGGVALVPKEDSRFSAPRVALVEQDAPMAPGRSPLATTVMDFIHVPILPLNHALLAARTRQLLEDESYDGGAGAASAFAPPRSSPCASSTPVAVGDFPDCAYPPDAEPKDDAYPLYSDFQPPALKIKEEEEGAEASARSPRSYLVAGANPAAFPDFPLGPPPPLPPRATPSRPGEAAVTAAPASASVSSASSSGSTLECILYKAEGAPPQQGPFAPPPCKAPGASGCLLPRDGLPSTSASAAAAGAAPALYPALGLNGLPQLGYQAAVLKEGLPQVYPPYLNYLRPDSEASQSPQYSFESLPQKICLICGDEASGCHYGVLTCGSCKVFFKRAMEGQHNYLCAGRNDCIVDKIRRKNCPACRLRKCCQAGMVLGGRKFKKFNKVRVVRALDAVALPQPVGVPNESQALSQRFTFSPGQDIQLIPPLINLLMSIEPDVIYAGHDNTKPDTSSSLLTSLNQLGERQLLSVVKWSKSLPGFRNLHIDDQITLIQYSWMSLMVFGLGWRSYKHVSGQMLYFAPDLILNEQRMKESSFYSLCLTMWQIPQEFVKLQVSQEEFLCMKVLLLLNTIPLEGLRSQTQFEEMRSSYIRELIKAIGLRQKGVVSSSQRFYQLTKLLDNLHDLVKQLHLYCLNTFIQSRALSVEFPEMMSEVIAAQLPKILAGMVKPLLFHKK
Put plainly: hPR binding assay (competitive radioligand binding).

A further data set deals with ovulation. In words: Rat ovulation inhibition model. Format: in vivo.

Each structure is given as a SMILES string. Several values for one entry are separate records, joined by “and”; a condition that tells them apart may be missing. Identical values can stand only once.

Usually EC50 stands for the concentration that produces a half-maximal response. High values mean a need for much substance, low ones an effect from little substance. As a reminder, the melting point is the temperature, or range, at which the solid turns liquid. The Ki is a dissociation constant, usually derived from enzyme kinetics or from competition with a known ligand. Lower therefore signals tighter binding.

`Cc1cc(C(N)=S)sc1-c1ccc2c(c1)C1(CCCCC1)C(=S)N2` [Example 5, 4-Methyl-5-(1,2-dihydro-2-thioxospiro[cyclohexane-1,3-[3H]-indol]-5-yl)-2-thiophene Thioamide] showed a melting point of 244 to 249 °C. Also, the midpoint of the response on human PR, the EC50, lay at 0.3 nM.

Take `CC(=O)O[C@]1(C(C)=O)CC[C@H]2[C@@H]3C[C@H](C)C4=CC(=O)CC[C@]4(C)[C@H]3CC[C@@]21C` [MPA, medroxyprogesterone acetate]: the EC50 in the data set with T47D cells is 0.017 nM and 0.019 nM; in data set [1], 0.42 mg/kg, s.c. and 0.39 mg/kg, s.c.

`CC1(C)C(=S)Nc2ccc(-c3cccc(Cl)c3)cc21` [Example 16, 5-(3-Chlorophenyl)-3,3-dimethyl-1,3-dihydro-2H-indole-2-thione]: the melting point was in the range of 158 to 160 °C.

Take `C#C[C@]1(O)CC[C@H]2[C@@H]3CCC4=CC(=O)CC[C@@H]4[C@H]3CC[C@@]21CC` [Levonorgestrel]: the concentration giving a half-maximal response (EC50) in data set [1] is 0.08 mg/kg, s.c. and 0.12 mg/kg, s.c. and 0.09 mg/kg, s.c.

With `CC#C[C@]1(O)CC[C@H]2[C@@H]3CCC4=CC(=O)CCC4=C3[C@@H](c3ccc(N(C)C)cc3)C[C@@]21C` [RU486], in data set [1] (half-maximal decrease in EC50 progesterone induced decidual response, rats, p.o.), the IC50 is 0.21 mg/kg, p.o. and 0.14 mg/kg, p.o.

For the molecule `CC(=O)[C@H]1CC[C@H]2[C@@H]3CCC4=CC(=O)CC[C@]4(C)[C@H]3CC[C@]12C` [Progesterone], the EC50 in data set [1] was 5.50 mg/kg, s.c. and 6.21 mg/kg, s.c.

Consider `C#C[C@]1(O)CC[C@H]2[C@@H]3CCC4=CC(=O)CC[C@@H]4[C@H]3C(=C)C[C@@]21CC` [3-Ketodesogestrel], for which, in data set [1], the EC50 was 0.10 mg/kg, s.c. and 0.06 mg/kg, s.c. and 0.11 mg/kg, s.c.

Consider `S=C1Nc2ccc(-c3cccc(Cl)c3)cc2C12CCCCC2` [Example 1, 5′-(3-Chlorophenyl)spiro[cyclohexane-1,3′-[3H]indole]-2′(1′H)-thione], for which the melting point was 223 to 227 °C. For the same molecule, the Ki in data set [2] was 0.2 nM. This molecule also registered an EC50 on human PR of 0.8 nM.

`CC1(Cc2ccccc2)C(=S)Nc2ccc(-c3cccc(Cl)c3)cc21` (stereo not shown) [Example 17, 3-Benzyl-5-(3-chlorophenyl)-3-methyl-1,3-dihydro-2H-indole-2-thione] displayed a melting point of 168 to 170 °C.

`C[C@H](O)C(=O)[C@@]1(C)CC[C@H]2[C@@H]3CCC4=CC(=O)CCC4=C3CC[C@@]21C` [Trimegestone]: in the data set on T47D cells, the EC50 was 0.017 nM and 0.014 nM and 0.019 nM.

The molecule `N#Cc1cc(-c2ccc3c(c2)C2(CCCCC2)C(=S)N3)cs1` [Example 3, 4-(1′, 2′-Dihydro-2′-thioxospiro[cyclohexane-1,3′-[3H]indol]-5′-yl)-2-thiophenecarbonitrile] returned a melting point of 230 to 232 °C. Moreover, affinity in data set [2] was put at a Ki of 0.1 nM. For the same molecule, at human PR, the concentration for a half-maximal effect (EC50) came out at 0.2 nM.

Regarding `N#Cc1cc(F)cc(-c2ccc3c(c2)C2(CCCCC2)C(=S)N3)c1` [Example 4, 3-(1,2-Dihydro-2-thioxospiro[cyclohexane-1,3-[3H]indol]-5-yl)-5-fluorobenzonitrile], the melting point is 236 to 250 °C. This molecule came in with a Ki in data set [2] of 0.06 nM. The same molecule had an EC50 on human PR of 0.1 nM. Moreover, the “Ovulation inhibition IC100” value with ovulation turned out to be 0.1 mg/kg.

`COc1cccc(-c2ccc3c(c2)C(C)(C)C(=S)N3)c1` [Example 19, 5-(3-Methoxyphenyl)-3,3-dimethyl-1,3-dihydro-2H-indole2-thione] displayed a melting point of 149 to 150 °C.

Source of the values: patent US6355648B1, “Thio-oxindole derivatives” (American Home Products Corporation, priority 1999, dated 2002).
